In general, IC50 refers to the midpoint of a concentration-inhibition curve. Read a high IC50 as weaker potency.

Experimental findings from patent US10550105B2 (Ribon Therapeutics Inc., priority 2018, dated 2020) are described below.

The experiment deals with PARP7 (Homo sapiens (Human), UniProt Q7Z3E1). The experiment in a line: Enzymatic assay for inhibition of PARP7: TR-FRET displacement of biotinylated Probe A from the TIPARP active site. The experiment is classed as binding. The settings on record: Table A-1. In short, it runs like this: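 TR-FRET, ex 320 nm / em 615 and 665 nm. Signal ratio reflects complex formation.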
PARP7, sequence (Q7Z3E1 whole entry): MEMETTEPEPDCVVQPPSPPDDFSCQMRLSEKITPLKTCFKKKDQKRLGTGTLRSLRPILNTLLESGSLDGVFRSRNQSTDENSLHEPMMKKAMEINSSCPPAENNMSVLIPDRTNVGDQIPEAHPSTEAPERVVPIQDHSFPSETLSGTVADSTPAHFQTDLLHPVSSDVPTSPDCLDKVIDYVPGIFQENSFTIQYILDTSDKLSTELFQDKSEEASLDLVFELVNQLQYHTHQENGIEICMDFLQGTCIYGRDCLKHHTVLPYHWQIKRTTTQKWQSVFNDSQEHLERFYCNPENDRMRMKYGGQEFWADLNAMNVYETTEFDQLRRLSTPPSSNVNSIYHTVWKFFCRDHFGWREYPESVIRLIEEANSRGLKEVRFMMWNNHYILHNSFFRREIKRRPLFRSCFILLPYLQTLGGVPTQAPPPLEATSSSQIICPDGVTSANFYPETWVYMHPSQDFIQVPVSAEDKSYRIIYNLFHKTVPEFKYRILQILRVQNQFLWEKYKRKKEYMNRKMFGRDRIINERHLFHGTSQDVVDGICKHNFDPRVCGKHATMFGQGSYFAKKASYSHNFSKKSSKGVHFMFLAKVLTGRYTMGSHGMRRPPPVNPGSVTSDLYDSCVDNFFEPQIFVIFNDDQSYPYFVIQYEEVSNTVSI
(In general: TR-FRET usually uses a lanthanide donor and a delayed reading to cut background.)
In turn, `N#Cc1ccc(N2CCN(C(=O)CNCCOc3cccc4c3CN(c3cn[nH]c(=O)c3C(F)(F)F)C4)CC2)nc1` [Example 491, 6-(4-((2-((2-(6-Oxo-5-(trifluoromethyl)-1,6-dihydropyridazin-4-yl)isoindolin-4-yl)oxy)ethyl)glycyl)piperazin-1-yl)nicotinonitrile] came in with a half-inhibitory concentration (IC50) below 100 nM.

Compound `N#Cc1ccc(N2CCN(C(=O)CCNCCOc3cccc4c3CN(c3cn[nH]c(=O)c3C(F)(F)F)C4)CC2)nc1` [Example 492, 6-(4-(3-((2-((2-(6-Oxo-5-(trifluoromethyl)-1,6-dihydropyridazin-4-yl)isoindolin-4-yl)oxy)ethyl)amino)propanoyl)piperazin-1-yl)nicotinonitrile] yielded an IC50 below 100 nM.

Consider `CN(CCOc1cccc2c1CN(c1cn[nH]c(=O)c1C(F)(F)F)C2)CCC(=O)N1CCN(c2ccc(C#N)cn2)CC1` [Example 493, 6-(4-(3-(Methyl(2-((2-(6-oxo-5-(trifluoromethyl)-1,6-dihydropyridazin-4-yl)isoindolin-4-yl)oxy)ethyl)amino)propanoyl)piperazin-1-yl)nicotinonitrile], for which the IC50 was below 100 nM.

Regarding `N#Cc1ccc(N2CCN(C(=O)c3ccc(Oc4cccc5c4CN(c4cn[nH]c(=O)c4C(F)(F)F)C5)cc3)CC2)nc1` [Example 494, 6-(4-(4-((2-(6-Oxo-5-(trifluoromethyl)-1,6-dihydropyridazin-4-yl)isoindolin-4-yl)oxy)benzoyl)pipoerazin-1-yl)nicotinonitrile], the IC50 is below 100 nM.

In turn, `N#Cc1ccc(N2CCN(C(=O)CCOCc3cccc4c3CN(c3cn[nH]c(=O)c3C(F)(F)F)C4)CC2)nc1` [Example 495, 6-(4-(3-((2-(6-Oxo-5-(trifluoromethyl)-1,6-dihydropyridazin-4-yl)isoindolin-4-yl)methoxy)propanoyl)piperazin-1-yl)nicotinonitrile] had a half-inhibitory concentration (IC50) below 100 nM.

`N#Cc1ccc(N2CCN(C(=O)CCCOCc3cccc4c3CN(c3cn[nH]c(=O)c3C(F)(F)F)C4)CC2)nc1` [Example 496, 6-(4-(4-((2-(6-Oxo-5-(trifluoromethyl)-1,6-dihydropyridazin-4-yl)isoindolin-4-yl)methoxy)butanoyl)piperazin-1-yl)nicotinonitrile] had a half-inhibitory concentration (IC50) below 100 nM.

`O=c1[nH]ncc(N2C[C@H]3CCCN[C@H]3C2)c1C(F)(F)F` [Example 497, 5-((4aR,7aR)-Octahydro-6H-pyrrolo[3,4-b]pyridin-6-yl)-4-(trifluoromethyl)pyridazin-3(2H)-one] registered a half-inhibitory concentration (IC50) of at least 1000 nM.

Take `O=c1[nH]ncc(N2C[C@@H]3CCCN[C@@H]3C2)c1C(F)(F)F` [Example 498, 5-((4aS,7aS)-Octahydro-6H-pyrrolo[3,4-b]pyridin-6-yl)-4-(trifluoromethyl)pyridazin-3(2H)-one]: the IC50 was at least 1000 nM.

As to `N#Cc1ccc(N2CCN(C(=O)COCCNc3cn[nH]c(=O)c3C(F)(F)F)CC2)nc1` [Example 499, 6-[4-[2-(2-[[6-Oxo-5-(trifluoromethyl)-1,6-dihydropyridazin-4-yl]amino]ethoxy)acetyl]piperazin-1-yl]pyridine-3-carbonitrile], the IC50 was below 100 nM.

In turn, `N#Cc1ccc(N2CCN(C(=O)CCOCCNc3cn[nH]c(=O)c3C(F)(F)F)CC2)nc1` [Example 500, 6-[4-[3-(2-[[6-Oxo-5-(trifluoromethyl)-1,6-dihydropyridazin-4-yl]amino]ethoxy)propanoyl]piperazin-1-yl]pyridine-3-carbonitrile] showed a half-maximal inhibitory concentration (IC50) below 100 nM.

The compound `N#Cc1ccc(N2CCN(C(=O)CCOCCOc3cn[nH]c(=O)c3C(F)(F)F)CC2)nc1` [Example 501, 6-[4-[3-(2-[[6-Oxo-5-(trifluoromethyl)-1,6-dihydropyridazin-4-yl]oxy]ethoxy)propanoyl]piperazin-1-yl]pyridine-3-carbonitrile] displayed an IC50 below 100 nM.

Take `N#Cc1ccc(N2CCN(C(=O)CCNCCOc3cn[nH]c(=O)c3C(F)(F)F)CC2)nc1` [Example 502]: the half-maximal inhibitory concentration (IC50) was at least 1000 nM.

The compound `O=C(CCOCCNc1cn[nH]c(=O)c1C(F)(F)F)N1CCN(c2ncc(Cl)cn2)CC1` [Example 503, 5-[(2-[3-[4-(5-Chloropyrimidin-2-yl)piperazin-1-yl]-3-oxopropoxy]ethyl)amino]-4-(trifluoromethyl)-2,3-dihydropyridazin-3-one] displayed a concentration for half-maximal inhibition (IC50) below 100 nM.

As to `O=C(CCOCCNc1cn[nH]c(=O)c1C(F)(F)F)N1CCN(c2ccc(C(F)(F)F)cn2)CC1` [Example 504, 5-[[2-(3-Oxo-3-[4-[5-(Trifluoromethyl)pyridin-2-yl]piperazin-1-yl]propoxy)ethyl]amino]-4-(trifluoromethyl)-2,3-dihydropyridazin-3-one], the concentration for half-maximal inhibition (IC50) was below 100 nM.

Compound `O=C(CCOCCNc1cn[nH]c(=O)c1C(F)(F)F)N1CCN(c2ncc(C(F)(F)F)cn2)CC1` [Example 505, 5-[[2-(3-Oxo-3-[4-[5-(Trifluoromethyl)pyrimidin-2-yl]piperazin-1-yl]propoxy)ethyl]amino]-4-(trifluoromethyl)-2,3-dihydropyridazin-3-one] showed an IC50 below 100 nM.

As to `N#Cc1ccc(N2CCN(C(=O)CCOCCNc3cn[nH]c(=O)c3Cl)CC2)nc1` [Example 507], the IC50 was below 100 nM.

In turn, `O=C(CCOCCNc1cn[nH]c(=O)c1Cl)N1CCN(c2ncc(C(F)(F)F)cn2)CC1` [Example 508, 4-Chloro-5-[[2-(3-oxo-3-[4-[5-(trifluoromethyl)pyrimidin-2-yl]piperazin-1-yl]propoxy)ethyl]amino]-2,3-dihydropyridazin-3-one] displayed a half-maximal inhibitory concentration (IC50) below 100 nM.

On to `O=C(CCOCCNc1cn[nH]c(=O)c1Cl)N1CCN(c2ccc(C(F)(F)F)cn2)CC1` [Example 509, 4-Chloro-5-[[2-(3-oxo-3-[4-[5-(trifluoromethyl)pyridin-2-yl]piperazin-1-yl]propoxy)ethyl]amino]-2,3-dihydropyridazin-3-one], for which the concentration for half-maximal inhibition (IC50) is below 100 nM.

Consider `CN(CCOCCC(=O)N1CCN(c2ccc(C#N)cn2)CC1)c1cn[nH]c(=O)c1C(F)(F)F` [Example 510, 6-[4-[3-(2-[Methyl[6-oxo-5-(trifluoromethyl)-1,6-dihydropyridazin-4-yl]amino]ethoxy)propanoyl]piperazin-1-yl]pyridine-3-carbonitrile], for which the half-maximal inhibitory concentration (IC50) was below 100 nM.

For the compound `N#Cc1ccc(N2CCN(C(=O)CCCCCNc3cn[nH]c(=O)c3C(F)(F)F)CC2)nc1` [Example 511, 6-[4-(6-[[6-Oxo-5-(trifluoromethyl)-1,6-dihydropyridazin-4-yl]amino]hexanoyl)piperazin-1-yl]pyridine-3-carbonitrile], the IC50 was below 100 nM.

Take `N#Cc1ccc(N2CCN(C(=O)CCCCCOc3cn[nH]c(=O)c3C(F)(F)F)CC2)nc1` [Example 512, 6-[4-(6-[[6-Oxo-5-(trifluoromethyl)-1,6-dihydropyridazin-4-yl]oxy]hexanoyl)piperazin-1-yl]pyridine-3-carbonitrile]: the half-maximal inhibitory concentration (IC50) is below 100 nM.

On to `C[C@@H](COCCC(=O)N1CCN(c2ccc(C#N)cn2)CC1)Nc1cn[nH]c(=O)c1C(F)(F)F` [Example 513A, (S)-6-(4-(3-(2-(6-Oxo-5-(trifluoromethyl)-1,6-dihydropyridazin-4-ylamino)propoxy)propanoyl)piperazin-1-yl)nicotinonitrile], for which the IC50 is below 100 nM.
